In PMC7380166, “How to Study the Metabolism of New Psychoactive Substances for the Purpose of Toxicological Screenings—A Follow-Up Study Comparing Pooled Human Liver S9, HepaRG Cells, and Zebrafish Larvae” (Frontiers in Chemistry, 2020):

Columns and labels:
[1] = Esterases activity screening, pHLM; type: in vitro ADME, human; design: key: +, detected; –: −, not detected; settings: 100 μM 4F-MDMB-BINACA, 0.2 mg protein/ml, duplicate
Description: (§1) Experiments were performed in accordance with a previous study (Meyer et al., [2015]) with minor modifications. The final volume per reaction tube was 100 μl with a final 4F-MDMB-BINACA concentration of 100 μM and enzyme concentration of 0.2 mg protein/ml for hCES1b, hCES1c, and hCES2. Incubations with pHLM and pHLS9 (0.2 mg protein/ml, each) were performed in a similar manner. Additionally, incubations with human plasma (50 μl pooled human plasma, 40 μl phosphate buffer, and 10 μl substrate) were performed. The reactions were started by adding the enzyme-containing preparation and terminated with an equal volume of ice-cold acetonitrile containing diazepam-d5 (100 μM) as an internal standard. Only plasma incubations were terminated by addition of a three-fold volume of ice-cold acetonitrile. The reaction mixtures were centrifuged at 18,407 × g for 15 min, and then supernatants were transferred to autosampler vials, and 5 μl was injected onto the LC-HRMS/MS system. Negative control incubations without enzyme were prepared to identify non-metabolically formed compounds. All incubations were done in duplicate.

[2] = target: T1, hCES2 (Homo sapiens, UniProt O00748); assay: Esterases activity screening, hCES2; type: in vitro ADME; design: key: +, detected; –, not detected; settings: 100 μM 4F-MDMB-BINACA, 0.2 mg protein/ml, duplicate
T1 construct: purchased Corning
T1 sequence (O00748 27-559): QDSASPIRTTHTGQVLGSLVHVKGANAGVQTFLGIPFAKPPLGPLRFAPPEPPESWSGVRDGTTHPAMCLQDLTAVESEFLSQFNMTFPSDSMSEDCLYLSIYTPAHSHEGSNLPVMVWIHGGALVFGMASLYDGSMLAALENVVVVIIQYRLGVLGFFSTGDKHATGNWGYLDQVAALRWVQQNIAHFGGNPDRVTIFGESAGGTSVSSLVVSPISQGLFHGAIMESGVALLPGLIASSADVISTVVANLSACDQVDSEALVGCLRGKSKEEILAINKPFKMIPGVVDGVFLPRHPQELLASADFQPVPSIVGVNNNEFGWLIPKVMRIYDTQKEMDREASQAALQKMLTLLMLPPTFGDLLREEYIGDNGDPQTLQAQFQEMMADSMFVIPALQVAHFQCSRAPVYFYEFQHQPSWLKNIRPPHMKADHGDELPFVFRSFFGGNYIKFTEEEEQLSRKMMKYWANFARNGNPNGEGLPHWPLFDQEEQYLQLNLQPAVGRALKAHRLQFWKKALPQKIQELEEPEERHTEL
Description: as §1

[3] = Esterases activity screening, pooled human blood plasma; type: in vitro ADME; design: key: +, detected; –, not detected; settings: 100 μM 4F-MDMB-BINACA, duplicate
Description: as §1

[4] = target: T2, hCES1b (Homo sapiens, UniProt P23141); assay: Esterases activity screening, hCES1b; type: in vitro ADME; design: key: +, detected; –: −, not detected; settings: 100 μM 4F-MDMB-BINACA, 0.2 mg protein/ml, duplicate
T2 construct: purchased Corning
T2 sequence (P23141 18-567): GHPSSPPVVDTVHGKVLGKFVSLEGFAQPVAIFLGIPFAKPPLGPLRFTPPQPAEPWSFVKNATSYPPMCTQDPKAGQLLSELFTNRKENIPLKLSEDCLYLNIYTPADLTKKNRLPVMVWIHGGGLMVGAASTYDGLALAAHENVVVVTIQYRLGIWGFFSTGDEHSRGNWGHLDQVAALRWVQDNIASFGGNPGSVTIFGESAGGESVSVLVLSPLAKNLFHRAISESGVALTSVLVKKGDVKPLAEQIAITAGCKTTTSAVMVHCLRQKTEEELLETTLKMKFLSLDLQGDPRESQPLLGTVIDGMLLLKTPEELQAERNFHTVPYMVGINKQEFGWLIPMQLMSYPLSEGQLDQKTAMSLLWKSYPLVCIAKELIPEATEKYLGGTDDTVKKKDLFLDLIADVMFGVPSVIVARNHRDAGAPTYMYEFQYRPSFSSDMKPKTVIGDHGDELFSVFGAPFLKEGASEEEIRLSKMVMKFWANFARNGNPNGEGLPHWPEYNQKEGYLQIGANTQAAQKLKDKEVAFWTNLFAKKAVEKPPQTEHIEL
Description: as §1

[5] = test system: monooxygenases; assay: Monooxygenases activity screening, summary over isozymes; type: in vitro ADME, human; settings: single-enzyme incubations, 25 μM
Description: According to an established protocol (Wagmann et al., [2016]), the final volume per reaction tube was 50 μl with a final 4F-MDMB-BINACA concentration of 25 μM and enzyme concentrations of 50 pmol/ml for CYP1A2, CYP2A6, CYP2B6, CYP2C8, CYP2C9, CYP2C19, CYP2D6, CYP2E1, CYP3A4, and CYP3A5, respectively, or 0.25 mg protein/ml for FMO3. Furthermore, the reaction mixture contained 90 mM phosphate buffer (pH 7.4), superoxide dismutase (200 U/ml), isocitrate (5 mM), MgCl2 (5 mM), isocitrate dehydrogenase (0.5 U/ml), and NADP^+ (1.2 mM). The phosphate buffer was replaced with Tris buffer (90 mM) for incubations with CYP2A6 and CYP2C9 according to the manufacturer's recommendation. All incubations were performed at 37°C for 30 min and terminated by adding 50 μl of ice-cold acetonitrile. Afterwards, the mixtures were centrifuged at 18,407 × g for 5 min, 70 μl of the supernatants was transferred into autosampler vials, and 1 μl was injected onto the LC-HRMS/MS system. Positive control incubations were performed with pHLM (1 mg microsomal protein/ml), and negative controls without enzyme were prepared to identify non-metabolically formed compounds. All incubations were done in duplicate.

[6] = pHLM without co-substrates of phase II reactions; ref Haschimi et al., [2019]; cited from earlier work

SMILES	Detection of metabolite in incubation with pHLM [1]	Detection of metabolite in incubation with hCES2 [2]	Detection of metabolite in incubation with pHBP [3]	Detection of metabolite in incubation with hCES1b [4]	Monooxygenases involved in the metabolic phase I reactions [5]	Number of phase I metabolites identified in pHLM incubations [6]
O=C(O)c1nn(CCCCF)c2ccccc12 [MB1]	+	–	–			
CC(C)(C)C(NC(=O)c1nn(CCCCF)c2ccccc12)C(=O)O (stereo not drawn) [MB8]	+	–	–	+		
COC(=O)C(NC(=O)c1nn(CCCCF)c2ccccc12)C(C)(C)C (stereo not drawn) [4F-MDMB-BINACA, methyl 2-[1-(4-fluorobutyl)-1H-indazole-3-carbonyl]amino-3,3-dimethylbutanoate]					CYP1A2, CYP2C8, CYP2C19, CYP3A4, and CYP3A5	11
